From patent US20250304563A1, “ACTIVATORS OF EFFECTOR T CELLS” (Orum Therapeutics, Inc., priority 2022, published 2025)

Tests used:
Human primary T cells [1] = test: T cell activation: CD69 surface expression by flow cytometry; assay type: cell-based; conditions: fold over anti-CD3 stimulated background normalized to Compound 141A; for CD69 10 nM: 10 nM compound; for CD69 100 nM: 100 nM compound
Experimental: (§1) Human primary T cells were isolated from commercially available frozen peripheral blood mononuclear cells (HemaCare Corporation) or from fresh LeukoPaks (Research Blood Components). T cells were isolated through depletion of non-T cells using negative selection kit according to the manufacturer's protocol (Miltenyi Biotec, Human Pan T Cell Isolation Kit, 130-096-535). Isolated cells were cultured overnight at 37° C. with 5% CO2 and plated at 1×10^5 cells per well in XVivo-15 serum-free media (Lonza, 04-418Q) into 96 well plates coated with anti-CD3 (OKT3) antibody (ThermoFisher, 16-0037-85). To coat the plates for T cell capture, anti-CD3 antibody was diluted in PBS at 10 μg/mL and 100 μl added to each well. Plates were incubated at 4° C. overnight or at 37° C. for 2 hours and washed once with PBS before use. Serial dilutions of each compound were added in duplicates to the T cells to assess their effect on T cell activation. T cells treated with 5 μg/mL of CD28 antibody (ThermoFisher, 16-0289-85) or T cells stimulated by CD3 only were used as a control. Plates were incubated with the Cbl-b inhibitors for 48 hours at 37° C. with 5% CO2, and supernatants were subsequently analyzed for levels of the activation induced secreted cytokines IL-2 or IFN-y (BD Biosciences CBA Flex Beads, 558269, 558270). T cells were additionally stained with anti-CD69 antibody (Invitrogen, 12-0699-42 which labels a T cell activation associated membrane protein to and surface expression was measured by flow cytometry (ThermoFisher Attune NxT).
(§2) To control for natural inter-donor variability in T cell responses intrinsic to using primary human donor derived cells, secreted IL-2 and IFN-y measurements for each test compound were reported as the fold increase of the compound treated levels over background (antiCD3/CD28 treatment only) normalized to the values obtained for Compound 141A. Results for compound treatment-induced changes in CD69 levels are similarly reported as the fold increase due to compound treatment over anti-CD3 stimulated background only, normalized to values obtained for Compound 141A.
Similarly, bins for normalized CD69 levels were sorted into ranges as follows: fold over background values between 1.11 and 1.6: range “X”, values between 0.81 and 1.10: range “A”; values between 0.61 and 0.80: range “B;” values between 0.30 and 0.60: range “C”.

Human primary T cells [2] = test: T cell activation: secreted IFN-y; assay type: cell-based; conditions: 48 hours, fold over background normalized to Compound 141A; for IFN-y 1 nM: 1 nM compound; for IFN-y 10 nM: 10 nM compound; for IFN-y 100 nM: 100 nM compound
Experimental: as §1, §2
Normalized T cell IFN-y responses were sorted into ranges as follows: fold over background between 1.10 and 2.00: range “A”, values between 0.31 and 1.00: range “B;” values between 0.10 and 0.30: range “C”, and values between 0.01 and 0.09: range “D.”

[3] = molecular target: Cbl-b (36-427 aa truncated form, N-terminus Avi-tag) (Homo sapiens (Human), UniProt Q13191); test: Cbl-b binding: TR-FRET displacement of BODIPY-FL probe
Sequence of Cbl-b (36-427 aa truncated form, N-terminus Avi-tag) (Q13191 36-427): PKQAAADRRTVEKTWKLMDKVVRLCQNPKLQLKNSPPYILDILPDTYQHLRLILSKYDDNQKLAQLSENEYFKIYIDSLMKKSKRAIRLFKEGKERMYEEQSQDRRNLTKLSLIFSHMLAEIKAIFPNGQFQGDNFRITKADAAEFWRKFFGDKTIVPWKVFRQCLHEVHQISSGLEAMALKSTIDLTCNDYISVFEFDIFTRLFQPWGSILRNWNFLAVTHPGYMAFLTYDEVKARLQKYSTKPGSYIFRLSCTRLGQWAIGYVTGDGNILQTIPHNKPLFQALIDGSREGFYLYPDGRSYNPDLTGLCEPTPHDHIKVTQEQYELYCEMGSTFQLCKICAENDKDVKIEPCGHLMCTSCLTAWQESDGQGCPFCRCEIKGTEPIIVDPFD
Procedure, shortened: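 IC50 from loss of terbium–BODIPY-FL TR-FRET signal as compounds compete off a fluorescent Cbl-b inhibitor probe (1 uM) for 1 h at RT. Protein: N-Avi-tagged human Cbl-b 36-427 on streptavidin-terbium, 20 mM HEPES pH 7.5 buffer.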

Human primary T cells [4] = test: T cell activation: secreted IL-2; assay type: cell-based; conditions: 48 hours, fold over background normalized to Compound 141A; for IL-2 1 nM: 1 nM compound; for IL-2 10 nM: 10 nM compound; for IL-2 100 nM: 100 nM compound
Experimental: as §1, §2
Normalized T cell IL-2 responses were sorted into ranges as follows: fold over background values between 1.41 and 1.8: range “X”, between 0.80 and 1.40: range “A”, values between 0.31 and 0.79: range “B” values between 0.10 and 0.30: range “C”, values between 0.01 and 0.09: range “D.”

| SMILES | CD69 10 nM (Human primary T cells [1]) | CD69 100 nM (Human primary T cells [1]) | IFN-y 1 nM (Human primary T cells [2]) | IFN-y 10 nM (Human primary T cells [2]) | IFN-y 100 nM (Human primary T cells [2]) | IC50 [3] [nM] | IL-2 1 nM (Human primary T cells [4]) | IL-2 10 nM (Human primary T cells [4]) | IL-2 100 nM (Human primary T cells [4]) |
| --- | --- | --- | --- | --- | --- | --- | --- | --- | --- |
| C[C@H]1CCCN(Cc2cc3c(c(C(F)(F)F)c2)CN(c2cc(C4(Cc5nncn5C)COC4)cc(SCCO)n2)C3=O)C1 [Compound 102, 2-{6-[(2-hydroxyethyl)sulfanyl]-4-{3-[(4-methyl-1,2,4-triazol-3-yl)methyl]oxetan-3-yl}pyridin-2-yl}-6-{[(3S)-3-methylpiperidin-1-yl]methyl}-4-(trifluoromethyl)-3H-isoindol-1-one] | C (values between 0.30 and 0.60: range “C”) | B (values between 0.61 and 0.80: range “B;”) | C (values between 0.10 and 0.30: range “C”) | C (values between 0.10 and 0.30: range “C”) | B (values between 0.31 and 1.00: range “B;”) | 5.01 to 20 | C (values between 0.10 and 0.30: range “C”) | C (values between 0.10 and 0.30: range “C”) | B (values between 0.31 and 0.79: range “B”) |
| CSCCNc1cc(C2(Cc3nncn3C)COC2)cc(N2Cc3c(cc(CN4CCC[C@H](C)C4)cc3C(F)(F)F)C2=O)n1 [Compound 103, 2-(4-{3-[(4-methyl-1,2,4-triazol-3-yl)methyl]oxetan-3-yl}-6-{[2-(methylsulfanyl)ethyl]amino}pyridin-2-yl)-6-{[(3S)-3-methylpiperidin-1-yl]methyl}-4-(trifluoromethyl)-3H-isoindol-1-one] | C (values between 0.30 and 0.60: range “C”) | B (values between 0.61 and 0.80: range “B;”) | C (values between 0.10 and 0.30: range “C”) | C (values between 0.10 and 0.30: range “C”) | B (values between 0.31 and 1.00: range “B;”) | 5.01 to 20 | C (values between 0.10 and 0.30: range “C”) | C (values between 0.10 and 0.30: range “C”) | B (values between 0.31 and 0.79: range “B”) |
| CCNc1cc(C2(Cc3nncn3C)COC2)cc(N2Cc3c(cc(CN4CCC(CSC)CC4)cc3C(F)(F)F)C2=O)n1 [Compound 106, 2-[6-(ethylamino)-4-{3-[(4-methyl-1,2,4-triazol-3-yl)methyl]oxetan-3-yl}pyridin-2-yl]-6-({4-[(methylsulfanyl)methyl]piperidin-1-yl}methyl)-4-(trifluoromethyl)-3H-isoindol-1-one] | C (values between 0.30 and 0.60: range “C”) | B (values between 0.61 and 0.80: range “B;”) | C (values between 0.10 and 0.30: range “C”) | C (values between 0.10 and 0.30: range “C”) | B (values between 0.31 and 1.00: range “B;”) | 100 to 1000 | C (values between 0.10 and 0.30: range “C”) | C (values between 0.10 and 0.30: range “C”) | B (values between 0.31 and 0.79: range “B”) |
| CCSc1cc(C2(Cc3nncn3C)COC2)cc(N2Cc3c(cc(CN4CCC[C@H](C)C4)cc3C(F)(F)F)C2=O)n1 [Compound 107, 2-[6-(ethylsulfanyl)-4-{3-[(4-methyl-1,2,4-triazol-3-yl)methyl]oxetan-3-yl}pyridin-2-yl]-6-{[(3S)-3-methylpiperidin-1-yl]methyl}-4-(trifluoromethyl)-3H-isoindol-1-one] | A (values between 0.81 and 1.10: range “A”) | A (values between 0.81 and 1.10: range “A”) | B (values between 0.31 and 1.00: range “B;”) | B (values between 0.31 and 1.00: range “B;”) | B (values between 0.31 and 1.00: range “B;”) | 5.01 to 20 | B (values between 0.31 and 0.79: range “B”) | B (values between 0.31 and 0.79: range “B”) | A (between 0.80 and 1.40: range “A”) |
| Cn1cnnc1CC1(c2cc(NCCC#N)nc(N3Cc4c(cc(CN5CCC6CC(O)CCC6C5)cc4C(F)(F)F)C3=O)c2)COC1 (stereo not drawn) [Compound 183, 3-((6-(6-((6-hydroxyoctahydroisoquinolin-2 (1H)-yl)methyl)-1-oxo-4-(trifluoromethyl)isoindolin-2-yl)-4-(3-((4-methyl-4H-1,2,4-triazol-3-yl)methyl)oxetan-3-yl)pyridin-2-yl)amino)propanenitrile; trifluoroacetic acid] | – | – | – | – | – | 100 to 1000 | – | – | – |
| Cn1cnnc1CC1(c2cc(NCCC#N)nc(N3Cc4c(cc(CN5CCN(c6ccccc6O)CC5)cc4C(F)(F)F)C3=O)c2)COC1 [Compound 184, 3-((6-(6-((4-(2-hydroxyphenyl)piperazin-1-yl)methyl)-1-oxo-4-(trifluoromethyl)isoindolin-2-yl)-4-(3-((4-methyl-4H-1,2,4-triazol-3-yl)methyl)oxetan-3-yl)pyridin-2-yl)amino)propanenitrile; trifluoroacetic acid] | – | – | – | – | – | 5.01 to 20 | – | – | – |
| Cn1cnnc1CC1(c2cc(NCCC#N)nc(N3Cc4c(cc(CN5CCc6ccc(O)cc6C5)cc4C(F)(F)F)C3=O)c2)COC1 [Compound 185, 3-((6-(6-((7-hydroxy-3,4-dihydroisoquinolin-2 (1H)-yl)methyl)-1-oxo-4-(trifluoromethyl)isoindolin-2-yl)-4-(3-((4-methyl-4H-1,2,4-triazol-3-yl)methyl)oxetan-3-yl)pyridin-2-yl)amino)propanenitrile; trifluoroacetic acid] | – | – | – | – | – | 5.01 to 20 | – | – | – |
| CCNc1cc(C(CO)(CCl)Cc2nncn2C)cc(N2Cc3c(cc(CN4CCC[C@H](C)C4)cc3C(F)(F)F)C2=O)n1 (stereo partly drawn) [Compound 187, 2-(4-(1-chloro-3-hydroxy-2-((4-methyl-4H-1,2,4-triazol-3-yl)methyl)propan-2-yl)-6-(ethylamino)pyridin-2-yl)-6-(((S)-3-methylpiperidin-1-yl)methyl)-4-(trifluoromethyl)isoindolin-1-one; hydrochloric acid] | – | – | – | – | – | 20 to 100 | – | – | – |
| CCSc1cc(C(CO)(CCl)Cc2nncn2C)cc(N2Cc3c(cc(CN4CCC[C@H](C)C4)cc3C(F)(F)F)C2=O)n1 (stereo partly drawn) [Compound 188, 2-(4-(1-chloro-3-hydroxy-2-((4-methyl-4H-1,2,4-triazol-3-yl)methyl)propan-2-yl)-6-(ethylthio)pyridin-2-yl)-6-(((S)-3-methylpiperidin-1-yl)methyl)-4-(trifluoromethyl)isoindolin-1-one; hydrochloric acid] | – | – | – | – | – | 100 to 1000 | – | – | – |
| Cn1cnnc1CC1(c2cc(NCCC#N)nc(N3Cc4c(cc(CN5CC6(CCC6O)C5)cc4C(F)(F)F)C3=O)c2)COC1 (stereo not drawn) [Compound 189, 3-((6-(6-((5-hydroxy-2-azaspiro[3.3]heptan-2-yl)methyl)-1-oxo-4-(trifluoromethyl)isoindolin-2-yl)-4-(3-((4-methyl-4H-1,2,4-triazol-3-yl)methyl)oxetan-3-yl)pyridin-2-yl)amino)propanenitrile; trifluoroacetic acid] | – | – | – | – | – | 5.01 to 20 | – | – | – |
